Measurements taken from the NIST ThermoML archive (doi:10.1021/je300134c).
± gives the expanded uncertainty stated by the source.

Experiment: xn = mol fraction of the nth substance listed
Conditions: 101 kPa, Liquid; for speed of sound: Sing-around technique in a fixed-path interferometer; for mass density: Vibrating tube method

CCCC[N+]1(C)CCCC1.O=S(=O)([O-])C(F)(F)F [1-butyl-1-methylpyrrolidinium trifluoromethanesulfonate] + O
Conditions	mass density [kg/m3]	speed of sound [m/s]
278.15 K, x1 = 0.04996	1113.86 ± 0.09	1595.9 ± 0.79
278.15 K, x1 = 0.1	1163.55 ± 0.11	1607.6 ± 0.8
278.15 K, x1 = 0.1507	1190.82 ± 0.12	1602.9 ± 0.81
278.15 K, x1 = 0.1999	1208.34 ± 0.14	1594.2 ± 0.82
278.15 K, x1 = 0.2996	1229.14 ± 0.16	1574.1 ± 0.85
278.15 K, x1 = 0.3986	1240.96 ± 0.19	1557 ± 0.89
278.15 K, x1 = 0.4982	1248.7 ± 0.22	1543.7 ± 0.93
278.15 K, x1 = 0.5996	1254.27 ± 0.26	1533.2 ± 0.99
278.15 K, x1 = 0.6993	1258.35 ± 0.3	1525.3 ± 1
278.15 K, x1 = 0.8017	1261.86 ± 0.35	1519.6 ± 1.1
278.15 K, x1 = 0.8993	1264.45 ± 0.4	1514 ± 1.2
278.15 K, x1 = 1	1267.23 ± 0.45	1513.5 ± 1.2
288.15 K, x1 = 0.04996	1108.53 ± 0.08	1594.7 ± 0.79
288.15 K, x1 = 0.1	1156.83 ± 0.1	1596.2 ± 0.8
288.15 K, x1 = 0.1507	1183.59 ± 0.12	1586 ± 0.81
288.15 K, x1 = 0.1999	1200.79 ± 0.13	1574.4 ± 0.82
288.15 K, x1 = 0.2996	1221.49 ± 0.16	1551.6 ± 0.84
288.15 K, x1 = 0.3986	1233.35 ± 0.18	1533.7 ± 0.88
288.15 K, x1 = 0.4982	1241.17 ± 0.22	1520 ± 0.93
288.15 K, x1 = 0.5996	1246.83 ± 0.25	1509.2 ± 0.98
288.15 K, x1 = 0.6993	1251.01 ± 0.29	1501 ± 1
288.15 K, x1 = 0.8017	1254.33 ± 0.34	1494.5 ± 1.1
288.15 K, x1 = 0.8993	1256.9 ± 0.39	1488.9 ± 1.2
288.15 K, x1 = 1	1259.74 ± 0.45	1486.1 ± 1.2
298.15 K, x1 = 0.04996	1102.75 ± 0.08	1590.4 ± 0.79
298.15 K, x1 = 0.1	1149.85 ± 0.1	1582.6 ± 0.79
298.15 K, x1 = 0.1507	1176.19 ± 0.12	1567.8 ± 0.8
298.15 K, x1 = 0.1999	1193.14 ± 0.13	1553.8 ± 0.81
298.15 K, x1 = 0.2996	1213.77 ± 0.15	1529 ± 0.84
298.15 K, x1 = 0.3986	1225.71 ± 0.18	1510.6 ± 0.87
298.15 K, x1 = 0.4982	1233.63 ± 0.21	1496.6 ± 0.92
298.15 K, x1 = 0.5996	1239.37 ± 0.25	1485.8 ± 0.97
298.15 K, x1 = 0.6993	1243.63 ± 0.29	1477.5 ± 1
298.15 K, x1 = 0.8017	1247.06 ± 0.33	1470.7 ± 1.1
298.15 K, x1 = 0.8993	1249.64 ± 0.38	1465 ± 1.2
298.15 K, x1 = 1	1252.26 ± 0.44	1461.4 ± 1.2
308.15 K, x1 = 0.04996	1096.56 ± 0.08	1583 ± 0.78
308.15 K, x1 = 0.1	1142.62 ± 0.1	1567 ± 0.79
308.15 K, x1 = 0.1507	1168.56 ± 0.11	1548.5 ± 0.79
308.15 K, x1 = 0.1999	1185.37 ± 0.13	1532.4 ± 0.8
308.15 K, x1 = 0.2996	1206 ± 0.15	1506.2 ± 0.83
308.15 K, x1 = 0.3986	1218.04 ± 0.18	1487.4 ± 0.87
308.15 K, x1 = 0.4982	1226.07 ± 0.21	1473.4 ± 0.91
308.15 K, x1 = 0.5996	1231.92 ± 0.24	1462.6 ± 0.96
308.15 K, x1 = 0.6993	1236.25 ± 0.28	1454.5 ± 1
308.15 K, x1 = 0.8017	1239.76 ± 0.33	1447.4 ± 1.1
308.15 K, x1 = 0.8993	1242.39 ± 0.38	1442 ± 1.2
308.15 K, x1 = 1	1245.09 ± 0.43	1437.8 ± 1.2
318.15 K, x1 = 0.04996	1089.97 ± 0.08	1572.9 ± 0.78
318.15 K, x1 = 0.1	1135.15 ± 0.09	1549.7 ± 0.78
318.15 K, x1 = 0.1507	1160.74 ± 0.11	1528 ± 0.79
318.15 K, x1 = 0.1999	1177.49 ± 0.12	1510.4 ± 0.79
318.15 K, x1 = 0.2996	1198.16 ± 0.15	1483.1 ± 0.82
318.15 K, x1 = 0.3986	1210.34 ± 0.17	1464.2 ± 0.86
318.15 K, x1 = 0.4982	1218.51 ± 0.2	1450.3 ± 0.9
318.15 K, x1 = 0.5996	1224.48 ± 0.24	1439.7 ± 0.96
318.15 K, x1 = 0.6993	1228.9 ± 0.28	1431.7 ± 1
318.15 K, x1 = 0.8017	1232.49 ± 0.32	1424.7 ± 1.1
318.15 K, x1 = 0.8993	1235.16 ± 0.37	1419.4 ± 1.1
318.15 K, x1 = 1	1237.94 ± 0.43	1414.9 ± 1.2
328.15 K, x1 = 0.04996	1083.01 ± 0.07	1560.3 ± 0.77
328.15 K, x1 = 0.1	1127.45 ± 0.09	1530.8 ± 0.77
328.15 K, x1 = 0.1507	1152.76 ± 0.11	1506.4 ± 0.78
328.15 K, x1 = 0.1999	1169.5 ± 0.12	1487.7 ± 0.79
328.15 K, x1 = 0.2996	1190.27 ± 0.14	1459.7 ± 0.81
328.15 K, x1 = 0.3986	1202.62 ± 0.17	1441 ± 0.85
328.15 K, x1 = 0.4982	1210.95 ± 0.2	1427.3 ± 0.9
328.15 K, x1 = 0.5996	1217.05 ± 0.23	1417 ± 0.95
328.15 K, x1 = 0.6993	1221.57 ± 0.27	1409.2 ± 1
328.15 K, x1 = 0.8017	1225.24 ± 0.32	1402.3 ± 1.1
328.15 K, x1 = 0.8993	1227.97 ± 0.37	1397.3 ± 1.1
328.15 K, x1 = 1	1230.81 ± 0.42	1392.7 ± 1.2
338.15 K, x1 = 0.04996	1075.72 ± 0.07	1545.4 ± 0.77
338.15 K, x1 = 0.1	1119.53 ± 0.09	1510.5 ± 0.77
338.15 K, x1 = 0.1507	1144.53 ± 0.1	1484 ± 0.77
338.15 K, x1 = 0.1999	1161.26 ± 0.12	1464.5 ± 0.78
338.15 K, x1 = 0.2996	1182.3 ± 0.14	1436.3 ± 0.8
338.15 K, x1 = 0.3986	1194.89 ± 0.17	1418 ± 0.84
338.15 K, x1 = 0.4982	1203.39 ± 0.2	1404.5 ± 0.89
338.15 K, x1 = 0.5996	1209.64 ± 0.23	1394.5 ± 0.95
338.15 K, x1 = 0.6993	1214.26 ± 0.27	1387 ± 1
338.15 K, x1 = 0.8017	1218.03 ± 0.31	1380.4 ± 1.1
338.15 K, x1 = 0.8993	1220.81 ± 0.36	1375.5 ± 1.1
338.15 K, x1 = 1	1223.73 ± 0.41	1371.1 ± 1.2
